B1: pLipA (Bacillus pumilus LipA; Lipase L5) (Bacillus pumilus) (protein)
chain: AEHNPVVMVHGMGGASYNFASIKSYLVTQGWDRNQLFAIDFIDKTGNNRNNGPRLSRFVKDVLGKTGAKKVDIVAHSMGGANTLYYIKNLDGGDKIENVVTLGGANGLVSLRALPGTDPNQKILYTSVYSSADMIVVNSLSRLIGARNVLIHGVGHISLLASSQVKGYIKEGLNGGGQNTN
notes: residues 35-215, codon-optimised synthetic gene in pET-22b(+) NdeI/XhoI, His-tag purified (tag removal not mentioned), E. coli NiCo21(DE3)

How the values were obtained:
[1] = biological target: T1, Bacillus licheniformis α-amylase (BLA) (Bacillus licheniformis, UniProt P06278); test: colourimetric, […] nm, temperature gradient (ThermoSlope); type: biochemical; conditions: phosphate buffered saline; 3.8 µM enzyme; 303-363 K, 2 K/min
T1 construct: gene amyS; commercial enzyme (Sigma-Aldrich A3403)
T1 sequence (P06278 30-512): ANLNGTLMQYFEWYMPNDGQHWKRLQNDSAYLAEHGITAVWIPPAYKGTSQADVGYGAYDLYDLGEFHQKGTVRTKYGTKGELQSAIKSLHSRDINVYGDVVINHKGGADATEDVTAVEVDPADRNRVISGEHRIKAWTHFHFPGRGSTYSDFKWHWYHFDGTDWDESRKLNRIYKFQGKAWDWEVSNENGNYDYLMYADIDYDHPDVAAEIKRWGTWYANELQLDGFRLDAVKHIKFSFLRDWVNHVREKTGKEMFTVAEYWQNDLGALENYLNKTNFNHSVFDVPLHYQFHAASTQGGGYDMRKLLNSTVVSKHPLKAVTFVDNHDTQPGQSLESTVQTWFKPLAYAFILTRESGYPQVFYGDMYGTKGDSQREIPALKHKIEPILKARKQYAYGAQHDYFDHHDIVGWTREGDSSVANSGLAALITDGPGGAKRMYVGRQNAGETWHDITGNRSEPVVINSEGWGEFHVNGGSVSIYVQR

[2] = biological target: T2, Pseudoalteromonas haloplanktis α-amylase (AHA) (Pseudoalteromonas haloplanktis, UniProt P29957); test: as above; type: biochemical; conditions: phosphate buffered saline; 60 nM enzyme; 283-306 K, 1 K/min
T2 construct: gene amy; recombinant, E. coli, same protocol as pLipA (IMAC, then HiTrap SP)
T2 sequence (P29957 25-477): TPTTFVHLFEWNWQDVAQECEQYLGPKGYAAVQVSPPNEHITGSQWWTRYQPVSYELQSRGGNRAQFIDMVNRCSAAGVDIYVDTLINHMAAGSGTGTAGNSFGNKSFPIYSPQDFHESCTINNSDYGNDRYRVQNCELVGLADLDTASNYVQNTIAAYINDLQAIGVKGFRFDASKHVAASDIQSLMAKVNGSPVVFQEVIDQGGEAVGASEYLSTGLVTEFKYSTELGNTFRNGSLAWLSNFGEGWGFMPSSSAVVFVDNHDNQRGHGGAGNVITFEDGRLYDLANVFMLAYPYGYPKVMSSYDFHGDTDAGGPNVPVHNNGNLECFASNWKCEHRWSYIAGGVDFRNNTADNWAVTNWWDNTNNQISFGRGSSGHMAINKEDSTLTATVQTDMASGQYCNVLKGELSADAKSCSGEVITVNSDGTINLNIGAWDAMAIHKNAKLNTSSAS

[3] = biological target: T3, Pig porcine α-amylase (PPA) (Sus scrofa, UniProt P00690); test: as above; type: biochemical; conditions: phosphate buffered saline; 0.45 nM enzyme; 283-363 K, 1 K/min
T3 construct: gene AMY2; commercial native enzyme (Sigma-Aldrich A4268)
T3 sequence (P00690 16-511): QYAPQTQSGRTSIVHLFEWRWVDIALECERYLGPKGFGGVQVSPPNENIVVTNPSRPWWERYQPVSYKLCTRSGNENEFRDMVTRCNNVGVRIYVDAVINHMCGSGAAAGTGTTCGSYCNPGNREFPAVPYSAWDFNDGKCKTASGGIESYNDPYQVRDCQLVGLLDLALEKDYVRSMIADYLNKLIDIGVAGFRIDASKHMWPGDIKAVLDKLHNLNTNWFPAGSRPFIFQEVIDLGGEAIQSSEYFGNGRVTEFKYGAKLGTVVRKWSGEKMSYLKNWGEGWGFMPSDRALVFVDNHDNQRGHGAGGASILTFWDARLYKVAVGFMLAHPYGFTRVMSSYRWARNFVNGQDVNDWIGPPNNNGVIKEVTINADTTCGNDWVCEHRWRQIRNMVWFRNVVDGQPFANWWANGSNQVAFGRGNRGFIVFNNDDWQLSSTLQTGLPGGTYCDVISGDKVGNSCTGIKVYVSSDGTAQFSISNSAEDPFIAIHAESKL

purified protein = substrate: CCCC(=O)Oc1ccc([N+](=O)[O-])cc1; test: purified protein; type: biochemical, Bacillus pumilus; conditions: 298 K, 50 mM potassium phosphate pH 7.2, 5% acetonitrile, 1 nM enzyme, stepwise approach, 25.0 °C

Molecule	colourimetric, 405 nm, temperature gradient (ThermoSlope) [1]	colourimetric, 405 nm, temperature gradient (ThermoSlope) [2]	colourimetric, 405 nm, temperature gradient (ThermoSlope) [3]	Km (purified protein)	kcat (purified protein)
O=[N+]([O-])c1ccc(O[C@H]2O[C@H](CO)[C@@H](O[C@H]3O[C@H](CO)[C@@H](O[C@H]4O[C@H](CO)[C@@H](O)[C@H](O)[C@H]4O)[C@H](O)[C@H]3O)[C@H](O)[C@H]2O)c(Cl)c1 [2-Chloro-4-nitrophenyl-α-D-maltotrioside]	α-amylases were completed in a similar fashion using the ThermoSlope-approach with the chromogenic substrate	α-amylases were completed in a similar fashion using the ThermoSlope-approach with the chromogenic substrate	α-amylases were completed in a similar fashion using the ThermoSlope-approach with the chromogenic substrate	–	–
B1	–	–	–	500 ± 100 µM	310 ± 20 s⁻¹
